Laboratory results taken from article PMC8850458, “The AUTOTAC chemical biology platform for targeted protein degradation via the autophagy-lysosome system” (Nature Communications, 2022).
Several values for one entry are separate records, joined by “and”; a condition that tells them apart may be missing. Equal entries are not always repeated.

Legend:
[1] = tested on: tauP301L inclusion bodies; assay: ICC of TauP301L-GFP autophagic targeting in HeLa cells; assay type: cell-based; settings: Fig. 5k, compound +HCQ; for TauP301L-GFP / LC3 colocalization, cells counted per 50 cells (individual replicates): count out of 50 cells
Description: Fig. 5 Selective degradation of pathological aggregation-prone tau species by aggregate-binding AUTOTAC. a–c WB in SH-SY5Y-tauP301L cells treated with PBA-1105, PBA, or YTK-1105 at the indicated concentrations. d Densitometry of (a, b, and c) (n = 3 biologically independent experiments). e–g Same as (a–c) but with Anle138b-F105, Anle138b, or YTK-105. (h) Densitometry of (e, f, and g) (n = 3 biologically independent experiments). i WB in SH-SY5Y-tauP301L cells treated with PBA-1105 (0.1 μM) at the indicated time points. j ICC of HeLa cells expressing recombinant TauP301L-GFP and treated with the indicated compounds (1 μM, 24 h) and HCQ (10 μM, 24 h). Scale bar, 10 μm. k Quantification of (j) (n = 3 biologically independent experiments each counting 50 cells). l In vivo oligomerization assay in SH-SY5Y-tauP301L cells treated with okadaic acid (15 nM, 24 h) and the indicated compounds (0.1 μM, 24 h). m Triton X-100-fractionation assay in SH-SY5Y-tauP301L cells treated with a combination of HCQ (10 μM, 24 h), okadaic acid (15 nM, 24 h) or PBA-1105 (0.1 μM, 24 h). Data are presented as mean values ± SD where relevant. P-values (from a two-sided unpaired t test): **P < 0.00821. Source data are provided with this paper.
Cells were cultured on coverslips coated with poly-L-lysine (Sigma) to observe cellular localization of proteins. Using 4% paraformaldehyde in PBS (pH 7.4), the cells were fixed for 15 min at room temperature and washed three times for 5 min with PBS. After fixing, the cells were permeabilized with 0.5% Triton X-100 in PBS solution for 15 min and washed three times with PBS for 5 min. The cells were blocked containing 2% BSA in PBS solution for 1 h at room temperature. Subsequently, the cells were incubated with primary antibody diluted in 2% BSA/PBS solution overnight at 4 °C, followed by washing the cells three times for 10 min with PBS and incubated with Alexa Fluor-conjugated secondary antibody diluted in 2% BSA/PBS for 30 min at room temperature. Using a DAPI-containing mounting medium (Vector Laboratories), the coverslips were mounted on glass slides. Confocal images were taken by laser scanning confocal microscope 510 Meta (Zeiss) and analyzed by Zeiss LSM Image Browser (ver. 4.2.0.121). […] Quantification results are shown as mean ± S.D. or S.E.M. of three independent experiments

tauP301L [2] = target: T1, tauP301L (Homo sapiens, UniProt P10636, P618L); assay: WB degradation of tauP301L in SH-SY5Y-tauP301L cells; assay type: cell-based; settings: for Tau normalized to GAPDH and control, AVG %: average of N=3
Outline: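 Lysates in SDS/LDS or Laemmli sample buffer were separated by SDS-PAGE and blotted to PVDF. Target protein was detected with primary antibodies, HRP secondary and ECL on X-ray film, and degradation quantified by band densitometry.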

mutant desminL385P = target: T2, mutant desminL385P (Homo sapiens, UniProt P17661, L385P); assay: WB degradation of mutant desmin in HeLa cells; assay type: cell-based; settings: exogenously expressed
T2 construct: expressed in transfected cells; host or cells: HeLa, transient
Description: Adherent cells were washed with phosphate-buffered saline (PBS) and cell pellets were lysed in SDS-based sample buffer (277.8 mM Tris-HCI, pH 6.8, 4.4% LDS, 44.4% (v/v) glycerol) containing beta-mercaptoethanol. Alternatively, cell pellets or protein supernatants were lysed in 5X Laemmli sample buffer. Whole-cell lysates were separated using SDS-PAGE, and transferred onto polyvinyllidene difluoride membranes at 100 V for 2 h at 4 °C. The membrane was incubated with a blocking solution consisting 4% skim milk in PBS solution for 30 min at room temperature and incubated with primary antibodies overnight, followed by incubation with host-specific HRP-conjugated secondary antibodies (1:10000 dilution). For signal detection, the membrane was developed with a mixture of ECL solution (Thermo Fisher Scientific) using X-ray films. Densitometry of developed bands was measured and analyzed with ImageJ (NIH, Bethesda).
Supplementary Fig. 5. AUTOTACs selectively target pathological aggregation-prone proteins for autophagic degradation. (a) WB in HEK293T cells treated with PBA-1105 (1 μM) and MG132 (1 μM, 24 h) at the indicated time points. (b) ICC of HeLa cells treated with the indicated compounds (1 μM, 24 h). Scale bar, 10 μm. (c) WB in HEK293T cells treated with PBA-1105 (500 nM, 24 h) and MG132 (1 μM, 24 h) under siRNA-mediated knockdown of p62 or ATG7 (20 nM, 48 h). (d) ICC in HeLa cells transiently expressing WIPI2-GFP and treated with Anle138b-F105 (1 μM, 24 h). Scale bar, 10 μm. (e) ICC in HeLa cells treated with […]
nM, 24 h). (g, h) WB in HeLa cells transiently expressing wild type or mutant (L385P) desmin-flag with LacZ-myc and treated with PBA-1105, PBA-1105b or Anle138b-F105 at the […]

tauP301L [3] = target: T1, tauP301L; assay: RIPA insoluble/soluble fractionation of brains of hTauP301L-BiFC mice, human tau; settings: for AVG (%) Insoluble hTau / AVG (%) Soluble hTau: control 100
p62 = target: T3, p62 (Homo sapiens, UniProt Q13501); assay: In vitro p62 oligomerization assay; assay type: biochemical; settings: HEK293T lysate
T3 construct: expressed in transfected cells; host or cells: HEK293T, transient; whole lysate used
Description: HEK293T cells were transiently transfected with a plasmid encoding p62-myc/his fusion proteins. Cells were resuspended in lysis buffer [50 mM HEPES (pH 7.4), 0.15 M KCl, 0.1% Nonidet P-40), 10% glycerol, containing a mixture of protease inhibitors and phosphatase inhibitor (Abcam)]. To lyse the cells, 10 cycles of freezing and thawing was done, followed by centrifugation at 13,000 × g for 20 min at 4 °C. Using a BCA assay, the protein concentration of the supernatant was measured. A total of 1 μg of protein was incubated with 1 mM of p62-ZZ ligands in the presence of 100 μM bestatin (Enzo) at room temperature for 2 h. After incubation, each sample was mixed with non-reducing 4X LDS sample buffer, heated at 95 °C for 10 min, and resolved using 4–20% gradient SDS-PAGE (Bio-Rad). To monitor the conversion of p62 monomers into oligomers or aggregates, IB assay was performed using anti-myc antibody.

[4] = densitometry, dosage degradation, SH-SY5Y-Tau-TiFC, 1 nM
[5] = densitometry, dosage degradation, SH-SY5Y-Tau-TiFC, 1 nM, read-out: (Tau normalized to GAPDH) normalized to control, percentage (individual replicates N=1, N=2, N=3)
[6] = densitometry, dosage degradation, SH-SY5Y-Tau-TiFC, 10 nM
[7] = densitometry, dosage degradation, SH-SY5Y-Tau-TiFC, 100 nM
[8] = densitometry, dosage degradation, SH-SY5Y-Tau-TiFC, 1 uM
[9] = densitometry, dosage degradation, SH-SY5Y-Tau-TiFC, 10uM

T1 sequence (P10636 1-441 isoform P10636-8 P301L): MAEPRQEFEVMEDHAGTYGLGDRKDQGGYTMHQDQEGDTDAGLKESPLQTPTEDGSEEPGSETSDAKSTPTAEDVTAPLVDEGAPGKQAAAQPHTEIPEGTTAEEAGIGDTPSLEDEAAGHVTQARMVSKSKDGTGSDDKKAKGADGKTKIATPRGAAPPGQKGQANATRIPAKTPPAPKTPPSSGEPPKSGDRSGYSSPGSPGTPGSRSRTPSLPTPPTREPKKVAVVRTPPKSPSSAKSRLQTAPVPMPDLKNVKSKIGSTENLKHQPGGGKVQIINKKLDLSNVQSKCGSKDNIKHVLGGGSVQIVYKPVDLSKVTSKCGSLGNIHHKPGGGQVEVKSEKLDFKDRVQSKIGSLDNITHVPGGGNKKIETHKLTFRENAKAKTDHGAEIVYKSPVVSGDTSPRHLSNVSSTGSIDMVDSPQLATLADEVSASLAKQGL
T3 sequence (Q13501 whole entry): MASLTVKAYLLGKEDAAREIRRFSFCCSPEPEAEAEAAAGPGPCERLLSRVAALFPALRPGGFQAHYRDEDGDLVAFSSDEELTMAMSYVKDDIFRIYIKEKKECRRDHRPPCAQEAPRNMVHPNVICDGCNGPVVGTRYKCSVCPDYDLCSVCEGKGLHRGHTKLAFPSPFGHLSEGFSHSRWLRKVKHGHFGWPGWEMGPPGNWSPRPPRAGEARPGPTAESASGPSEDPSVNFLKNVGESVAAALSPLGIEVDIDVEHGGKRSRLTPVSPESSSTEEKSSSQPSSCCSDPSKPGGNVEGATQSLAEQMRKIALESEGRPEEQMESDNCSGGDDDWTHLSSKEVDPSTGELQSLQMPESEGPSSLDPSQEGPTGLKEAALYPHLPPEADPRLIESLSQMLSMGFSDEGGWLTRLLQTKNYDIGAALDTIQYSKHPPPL
T2 sequence (P17661 whole entry L385P): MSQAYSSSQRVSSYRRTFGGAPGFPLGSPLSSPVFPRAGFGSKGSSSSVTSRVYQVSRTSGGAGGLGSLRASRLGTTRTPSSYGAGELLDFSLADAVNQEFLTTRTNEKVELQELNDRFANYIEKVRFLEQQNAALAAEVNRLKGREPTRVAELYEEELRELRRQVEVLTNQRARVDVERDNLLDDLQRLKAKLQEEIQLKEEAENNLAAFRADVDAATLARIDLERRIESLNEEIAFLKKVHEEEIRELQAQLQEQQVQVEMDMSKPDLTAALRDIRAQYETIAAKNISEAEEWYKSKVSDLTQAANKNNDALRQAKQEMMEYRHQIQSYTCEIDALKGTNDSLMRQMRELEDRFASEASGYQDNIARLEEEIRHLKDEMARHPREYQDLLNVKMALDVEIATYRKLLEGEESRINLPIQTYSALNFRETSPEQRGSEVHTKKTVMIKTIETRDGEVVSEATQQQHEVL

Row | Structure (SMILES) | TauP301L-GFP / LC3 colocalization, AVG of cells per 50 cells [1] | TauP301L-GFP / LC3 colocalization, percentage AVG [1] | Tau normalized to GAPDH and control, AVG % (tauP301L [2]; [4]) | remaining activity at 0.001 µM (tauP301L [2]; [5]) | Tau normalized to GAPDH and control, AVG % (tauP301L [2]; [6]) | Tau normalized to GAPDH and control, AVG % (tauP301L [2]; [7]) | Tau normalized to GAPDH and control, AVG % (tauP301L [2]; [8]) | Tau normalized to GAPDH and control, AVG % (tauP301L [2]; [9]) | p62 self-oligomerization (p62) | other results
1 | O=C(O)CCCc1ccccc1 [4-PBA, 4-phenylbutyric acid] | 13.6667 | 27.3333 percentage | 80.1686% | 76.8% | 93.9777% | 90.7287% | 84.0643% | 93.7866% |  | TauP301L-GFP / LC3 colocalization, cells counted per 50 cells (individual replicates) ([1]; listed as PBA): 12 and 22 and 7; remaining activity at 10 µM (tauP301L [2]; densitometry, dosage degradation, SH-SY5Y-Tau-TiFC, 10uM, read-out: (Tau normalized to GAPDH) normalized to control, percentage (individual replicates N=1, N=2, N=3)): 87%
2 | O=C(CCCc1ccccc1)NCCOCCOCCOCCNCc1ccc(OCc2ccccc2)c(OCc2ccccc2)c1 [PBA-1105] | 33 | 66 percentage | 46.0558% | 45% | 19.6838% | 23.7212% | 30.8722% | 73.3109% | triggered its self-oligomerization | degradation of mutant desminL385P (mutant desminL385P): induced the degradation; AVG (%) Insoluble hTau (tauP301L [3]; 20 mg/kg): 43.8995%; AVG (%) Soluble hTau (tauP301L [3]; 20 mg/kg): 87.1538%; AVG (%) Insoluble hTau (tauP301L [3]; 50 mg/kg): 10.5836%; AVG (%) Soluble hTau (tauP301L [3]; 50 mg/kg): 66.7118%; soluble tau species in brain (tauP301L [3]; hTauP301L-BiFC mice, i.p. 20 or 50 mg/kg): little if any reduction; detergent-insoluble tauP301L in brain (tauP301L [3]; hTauP301L-BiFC mice, i.p. 20 or 50 mg/kg, three times per week for one month): marked clearance; TauP301L-GFP / LC3 colocalization, cells counted per 50 cells (individual replicates) [1]: 33 and 41 and 25; DC50 (tauP301L [2]; SH-SY5Y-tauP301L cells): 1 to 10 nM; Dmax,24 hr of tauP301L degradation (tauP301L [2]; SH-SY5Y-tauP301L cells): 100 nM; Tau normalized to GAPDH and control, AVG % (tauP301L [2]; densitometry, dosage degradation, SH-SY5Y-Tau-TiFC, 2.5uM): 20.4143%; remaining activity at 2.5 µM (tauP301L [2]; densitometry, dosage degradation, SH-SY5Y-Tau-TiFC, 2.5uM, read-out: (Tau normalized to GAPDH) normalized to control, percentage (individual replicates N=1, N=2, N=3)): 19.2%; Tau normalized to GAPDH and control, AVG % (tauP301L [2]; densitometry, dosage degradation, SH-SY5Y-Tau-TiFC, 5uM): 12.549%
3 | O[C@H](CNCCOCCOCCOc1ccc(-c2c(-c3ccccc3)nn3c(C(F)(F)F)cc(C(F)(F)F)nc23)cc1)COc1ccc(OCc2ccccc2)c(OCCCc2ccccc2)c1 [PHTPP-1304] |  |  |  |  |  |  |  |  | induced self-oligomerization of p62 | 
